Measured values published in patent US5541163A, “Renin inhibiting N-(2-amino-2-oxoethyl)butanediamide derivatives” (Bio-Mega/Boehringer Ingelheim Research Inc., priority 1993, dated 1996).

Molecular target: T1, human renin (Homo sapiens, UniProt P00797)
T1 construct: A human plasma pool is used as the source of both the substrate (angiotensinogen) and the enzyme (renin); from tissue; host or cells: human plasma pool
T1 sequence (P00797 67-406): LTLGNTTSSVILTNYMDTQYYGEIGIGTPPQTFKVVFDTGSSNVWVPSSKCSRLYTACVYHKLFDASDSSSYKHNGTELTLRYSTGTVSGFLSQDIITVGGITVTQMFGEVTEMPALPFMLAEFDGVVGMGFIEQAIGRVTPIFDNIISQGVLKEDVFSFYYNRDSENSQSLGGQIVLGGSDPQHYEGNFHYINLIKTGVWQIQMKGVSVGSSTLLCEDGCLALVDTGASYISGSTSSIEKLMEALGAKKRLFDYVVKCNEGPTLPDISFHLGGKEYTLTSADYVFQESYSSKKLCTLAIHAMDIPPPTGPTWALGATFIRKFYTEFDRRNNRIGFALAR
Assay: Plasma renin assay (inhibition of human renin, angiotensin I by RIA)
Type: biochemical
Conditions: human plasma pool, pH 6.0, 2 h incubation at 37°
Method in brief: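 Pooled human plasma supplies both renin and angiotensinogen; inhibitor in MES/1% HSA buffer (1% DMSO final) incubated 2 h at 37° at pH 6.0. Angiotensin I generated quantified by radioimmunoassay, inhibition relative to no-inhibitor control, IC50 by nonlinear regression.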

| SMILES | IC50 [nM] |
| --- | --- |
| CC(C)C[C@H](O)[C@H](O)[C@H](CC1CCCCC1)NC(=O)[C@@H](CC(=O)N(CC(=O)N(C)CCc1ccccn1)Cc1nccs1)Cc1csc(N)n1 [Compound 86, N^4 -{2-{methyl[2-(2-pyridinyl)ethyl]-amino}-2-oxoethyl}-N^4-(2-thiazolylmethyl)-N^1-[1(S)-(cyclohexylmethyl)-2(R),3(S)-dihydroxy-5-methylhexyl]-2(R)-[(2-amino-4-thiazolyl)methyl]-butanediamide] | 6 |
| CC(C)C[C@H](O)[C@H](O)[C@H](CC1CCCCC1)NC(=O)[C@@H](CC(=O)N(CCC1CCCC1)CC(=O)N(C)CCc1ccccn1)Cc1csc(N)n1 [Compound 87, N^4-(2-cyclopentylethyl)-N^4 -{2-{methyl[2-(2-pyridinyl)ethyl]amino}-2-oxoethyl}-N^1-[1(S)-(cyclohexylmethyl)-2(R),3(S)-dihydroxy-5-methylhexyl]-2(R)-[(2-amino-4-thiazolyl)-methyl]butanediamide] | 2 |
| Cc1ccsc1CN(CC(=O)N(C)CCc1ccccn1)C(=O)C[C@@H](Cc1csc(N)n1)C(=O)N[C@@H](CC1CCCCC1)[C@@H](O)[C@@H](O)CC(C)C [Compound 88, N^4 -{2-{methyl[2-(2-pyridinyl)ethyl]-amino}-2-oxoethyl}-N^4-[(3-methyl-2-thienyl)methyl]-N^4-[1(S)-(cyclohexylmethyl)-2(R),3(S)-dihydroxy-5-methylhexyl]-2(R)-[(2-amino-4-thiazolyl)methyl]butanediamide] | 4 |
| CC(C)C[C@H](O)[C@H](O)[C@H](CC1CCCCC1)NC(=O)[C@@H](CC(=O)N(CC(=O)N(C)CCc1ccccn1)Cc1ccoc1)Cc1csc(N)n1 [Compound 89, N^4-(3-furanylmethyl)-N^4 -{2-{methyl-[2-(2-pyridinyl)ethyl]amino}-2-oxoethyl}-N^1-[1(S)-(cyclohexylmethyl)-2(R),3(S)-dihydroxy-5-methylhexyl]-2(R)-[(2-amino-4-thiazolyl)-methyl]butanediamide] | 3 |
| CC(C)C[C@H](O)[C@H](O)[C@H](CC1CCCCC1)NC(=O)[C@@H](CC(=O)N(CC(=O)N(C)CCN1CCOCC1)CC1CCCCC1)Cc1csc(N)n1 [Compound 90, N^4-(cyclohexylmethyl)-N^4 -{2-{methyl-(2-morpholinoethyl)amino]-2-oxoethyl}-N^1-[(S)-(cyclohexylmethyl)-2(R),3(S)-dihydroxy-5-methylhexyl]-2(R)-[(2-amino-4-thiazolyl)methyl]-butanediamide] | 0.5 |
| CCCC(CCC)N(CC(=O)N(C)CCc1ccccn1)C(=O)C[C@@H](Cc1csc(N)n1)C(=O)N[C@@H](CC1CCCCC1)[C@@H](O)[C@@H](O)CC(C)C [Compound 91] | 8 |
| CCCC(CCC)CN(CC(=O)N(C)CCc1ccccn1)C(=O)C[C@@H](Cc1csc(N)n1)C(=O)N[C@@H](CC1CCCCC1)[C@@H](O)[C@@H](O)CC(C)C [Compound 92, N^4 -{2-{methyl[2-(2-pyridinyl)ethyl]-amino}-2-oxoethyl}-N^4-(2-propylpentyl)-N^1-[1(S)-(cyclohexylmethyl)-2(R),3(S)-dihydroxy-5-methylhexyl]-2(R)-[(2-amino-4-thiazolyl)methyl]-butanediamide] | 5 |
| CC(C)C[C@H](O)[C@H](O)[C@H](CC1CCCCC1)NC(=O)[C@@H](CC(=O)N(CC(=O)N(C)CCN1CCOCC1)[C@@H](C)c1ccccc1)Cc1csc(N)n1 [Compound 93, N^4 -{2-[methyl(2-morpholinoethyl)-amino]-2-oxoethyl}-N^4-[1(S)-phenylethyl]-N^1-[1(S)-(cyclohexylmethyl)-2(R),3(S)-dihydroxy-5-methylhexyl]-2(R)-[(2-amino-4-thiazolyl)methyl]-butanediamide] | 2 |
